Test results published in patent US20250127725A1, “MAGNESIUM OXIDE TABLETS” (SETOLAS Holdings, Inc., priority 2021, published 2025).

Key:
Assay type in all cases: physicochemical
Conditions in all cases: magnesium oxide raw material
[1] = Bulk density, 100 mL stainless steel cup
Experimental: The bulk density of magnesium oxide particles to be used in the present invention may be set to an upper limit of 0.8 g/mL or less, or 0.7 g/mL or less, since too high a density may cause a decrease in hardness. On the other hand, since too low bulk density may cause capping and lamination, the lower limit may be 0.1 g/mL or more, or 0.2 g/mL or more. Bulk density can be measured, e.g., using a 100 mL stainless steel cup (actual mass value (g)/100 (mL)).
(§1) The physical properties of the magnesium oxide used in these examples were measured, and the results were as follows. • Average particle size: 7.691 μm (measured according to laser diffraction scattering using a Microtrac Bell MT3300 EX2) • Bulk density: 0.249 g/mL (measured with 100 mL stainless steel cup (actual mass value (g)/100 (mL)) • Angle of repose: 41.7° (measured using MT-1 Multitester from Seishin Enterprise Co., Ltd.)
The weighed raw materials of magnesium oxide and internal additives were put into a polyethylene bag (1100 mm×600 mm) and mixed by shaking the bag 30 times from side to side. After the mixing, the bulk density was measured using a 100 mL stainless steel cup (actual mass value (g)/100 (mL)).
[formula] […]

[2] = Angle of repose, Multitester MT-1
Experimental: The angle of repose of magnesium oxide particles to be used in the present invention may be set to an upper limit of 50° or less, or 48° or less, since an excessively large angle of repose may lead to a variation in the mass of the resulting tablets during tableting due to deteriorated flowability. On the other hand, the lower limit of the angle of repose is not specified because the lower the angle of repose, the better. The angle of repose can be measured, e.g., using Multitester MT-1 from Seishin Enterprise Co., Ltd.
as §1
After mixing, the following items were evaluated. • Bulk density: Measured with 100 mL stainless steel cup (actual mass value (g)/100 (mL) • Angle of repose: Measured using MT-1 Multitester from Seishin Enterprise Co., Ltd.

[3] = Average particle size of magnesium oxide, laser diffraction scattering, MT3300 EX2
Experimental: The average particle size and average particle diameter of the magnesium oxide particles of the present invention and magnesium hydroxide particles used as raw materials therefor can be measured according to laser diffraction scattering method with a commonly used instrument, such as a particle size analyzer (MT3300EX2 from Microtrac Bell Corporation).
as §1

## [O]=[Mg] [Magnesium oxide]
[1]
  Bulk density: 0.249 g/mL
[2]
  Angle of repose: 41.7 °
[3]
  Average particle size: 7.691 μm
